Measurements reported in article PMC3574231 (ACS chemical biology, 2012).

How the values were obtained:
[1] = Reversed-phase HPLC retention; format: physicochemical; conditions: chromatographic, C-18 column

cyclo[(pCAP)FΦRRRRQ] (head to tail) [cyclic pCAP]
Intracellular CAP fluorescence after pretreatment with 1 mM sodium pervanadate (MCF-7 and HEK293 cells): dramatically reduced

cyclo(FΦRRRRQ) [Peptide 11]
Retention time by reversed-phase HPLC (measure of overall hydrophobicity) [1]: virtually identical retention times
